In patent US5075289A, “9-R-azacyclic erythromycin antibiotics” (priority 1988, dated 1991):
≈ marks a conversion by molar mass, not a printed value.

Legend:
Assay type in all cases: cell-based
[1] = system: Enterococcus faecium ATCC 8043; assay: In vitro antibacterial activity, agar dilution MIC; conditions: ATCC8043
Experimental: (§1) The antimicrobial spectra of a number of compounds of the invention were tested by the following method:
(§2) Twelve petri dishes containing successive aqueous dilutions of the test compound mixed with 10 ml of sterilized Brain Heart Infusion agar (Difco 0418-01-5) are prepared. Each plate is inoculated with 1:100 (or 1:10 for slow growing strains, primarily Micrococcus and Streptococcus) dilutions of up to 32 different microorganisms, using a Steers replicator block The inoculated plates are incubated at 35°-37° C. for 20-24 hours. In addition, a control plate, using BHI agar containing no test compound, is prepared and incubated at the beginning and end of each test.
(§3) An additional plate containing a compound having known susceptibility patterns for the organisms being tested and belonging to the same antibiotic class as the test compound is also prepared and incubated as a further control, as well as to provide test-to-test comparability. Erythromycin A was used for this purpose.
(§4) After incubation, each disk is read. The MIC is defined as the lowest concentration of drug yielding no growth, a slight haze, or sparsely isolated colonies on the inoculum spot as compared to the growth control.

Escherichia coli DC-2 = assay: In vitro antibacterial activity, agar dilution MIC; conditions: DC2
Experimental: as §1, §2, §3, §4

Escherichia coli H560 = assay: In vitro antibacterial activity, agar dilution MIC; conditions: E. coli H560, Brain Heart Infusion agar, 20-24 hours, read-out: MIC
Experimental: as §1, §2, §3, §4

Escherichia coli Juhl = assay: In vitro antibacterial activity, agar dilution MIC
Experimental: as §1, §2, §3, §4

Escherichia coli SS = assay: In vitro antibacterial activity, agar dilution MIC; conditions: read-out: MIC
Experimental: as §1, §2, §3, §4

[2] = system: Haemophilus influenzae 1177; assay: In vitro antibacterial activity, agar dilution MIC; conditions: H. influenzae 1177
Experimental: as §1, §2, §3, §4

[3] = system: Haemophilus influenzae 1435; assay: In vitro antibacterial activity, agar dilution MIC; conditions: H. influenzae 1435
Experimental: as §1, §2, §3, §4

[4] = system: Haemophilus influenzae 503B; assay: In vitro antibacterial activity, agar dilution MIC; conditions: H. influenzae 503B
Experimental: as §1, §2, §3, §4

[5] = system: Haemophilus influenzae 504; assay: In vitro antibacterial activity, agar dilution MIC; conditions: H. influenzae 504
Experimental: as §1, §2, §3, §4

[6] = system: Haemophilus influenzae 519A; assay: In vitro antibacterial activity, agar dilution MIC; conditions: H. influenzae 519A
Experimental: as §1, §2, §3, §4

[7] = system: Haemophilus influenzae 566A; assay: In vitro antibacterial activity, agar dilution MIC; conditions: H. influenzae 566A
Experimental: as §1, §2, §3, §4

[8] = system: Haemophilus influenzae 588A; assay: In vitro antibacterial activity, agar dilution MIC; conditions: H. influenzae 588A
Experimental: as §1, §2, §3, §4

[9] = system: Haemophilus influenzae 632A; assay: In vitro antibacterial activity, agar dilution MIC; conditions: H. influenzae 632A
Experimental: as §1, §2, §3, §4

[10] = system: Haemophilus influenzae 667A; assay: In vitro antibacterial activity, agar dilution MIC; conditions: H. influenzae 667A
Experimental: as §1, §2, §3, §4

[11] = system: Haemophilus influenzae 747C; assay: In vitro antibacterial activity, agar dilution MIC; conditions: H. influenzae 747C
Experimental: as §1, §2, §3, §4

[12] = system: Haemophilus influenzae 751; assay: In vitro antibacterial activity, agar dilution MIC; conditions: H. influenzae 751
Experimental: as §1, §2, §3, §4

[13] = system: Haemophilus influenzae ATCC 10211; assay: In vitro antibacterial activity, agar dilution MIC; conditions: ATCC10211, H. influenzae ATCC 10211
Experimental: as §1, §2, §3, §4

[14] = system: Haemophilus influenzae ATCC 19418; assay: In vitro antibacterial activity, agar dilution MIC; conditions: ATCC19418, H. influenzae ATCC 19418
Experimental: as §1, §2, §3, §4

[15] = system: Haemophilus influenzae ATCC 9795; assay: In vitro antibacterial activity, agar dilution MIC; conditions: ATCC9795, H. influenzae ATCC 9795
Experimental: as §1, §2, §3, §4

[16] = system: Haemophilus influenzae DILL AMP R; assay: In vitro antibacterial activity, agar dilution MIC; conditions: H. influenzae DILL AMP R
Experimental: as §1, §2, §3, §4

[17] = system: Haemophilus influenzae SOL AMP R; assay: In vitro antibacterial activity, agar dilution MIC; conditions: H. influenzae SOL AMP R
Experimental: as §1, §2, §3, §4

[18] = system: Haemophilus influenzae SPK AMP R; assay: In vitro antibacterial activity, agar dilution MIC; conditions: H. influenzae SPK AMP R
Experimental: as §1, §2, §3, §4

[19] = system: Micrococcus luteus ATCC 4698; assay: In vitro antibacterial activity, agar dilution MIC; conditions: ATCC4698, read-out: MIC
Experimental: as §1, §2, §3, §4

[20] = system: Micrococcus luteus ATCC 9341; assay: In vitro antibacterial activity, agar dilution MIC; conditions: ATCC9341, M. luteus ATCC 9341, Brain Heart Infusion agar, 20-24 hours, read-out: MIC
Experimental: as §1, §2, §3, §4

Staphylococcus aureus 45 = assay: In vitro antibacterial activity, agar dilution MIC; conditions: S. aureus 45, Brain Heart Infusion agar, 20-24 hours, read-out: MIC
Experimental: as §1, §2, §3, §4

[21] = system: Staphylococcus aureus 642A; assay: In vitro antibacterial activity, agar dilution MIC; conditions: S. aureus 642A, Brain Heart Infusion agar, 20-24 hours, read-out: MIC
Experimental: as §1, §2, §3, §4

[22] = system: Staphylococcus aureus A5177; assay: In vitro antibacterial activity, agar dilution MIC; conditions: S. aureus A5177, Brain Heart Infusion agar, 20-24 hours, read-out: MIC
Experimental: as §1, §2, §3, §4

[23] = system: Staphylococcus aureus ATCC 6538P; assay: In vitro antibacterial activity, agar dilution MIC; conditions: ATCC6538P
Experimental: as §1, §2, §3, §4

[24] = system: Staphylococcus aureus CMX 553; assay: In vitro antibacterial activity, agar dilution MIC; conditions: CMX553, S. aureus CMX 553, Brain Heart Infusion agar, 20-24 hours, read-out: MIC
Experimental: as §1, §2, §3, §4

[25] = system: Staphylococcus aureus NCTC 10649; assay: In vitro antibacterial activity, agar dilution MIC; conditions: NCTC10649, S. aureus NCTC 10649, Brain Heart Infusion agar, 20-24 hours, read-out: MIC
Experimental: as §1, §2, §3, §4

[26] = system: Staphylococcus epidermidis 3519; assay: In vitro antibacterial activity, agar dilution MIC; conditions: S. epidermidis 3519, Brain Heart Infusion agar, 20-24 hours, read-out: MIC
Experimental: as §1, §2, §3, §4

[27] = system: Streptococcus agalactiae CMX 508; assay: In vitro antibacterial activity, agar dilution MIC; conditions: CMX508, S. agalactiae CMX 508, Brain Heart Infusion agar, 20-24 hours, read-out: MIC
Experimental: as §1, §2, §3, §4

[28] = system: Streptococcus bovis A5169; assay: In vitro antibacterial activity, agar dilution MIC; conditions: read-out: MIC
Experimental: as §1, §2, §3, §4

[29] = system: Streptococcus pyogenes 2548 INDUC; assay: In vitro antibacterial activity, agar dilution MIC; conditions: 2548INDUC
Experimental: as §1, §2, §3, §4

[30] = system: Streptococcus pyogenes 930 CONST; assay: In vitro antibacterial activity, agar dilution MIC; conditions: 930CONST
Experimental: as §1, §2, §3, §4

[31] = system: Streptococcus pyogenes EES61; assay: In vitro antibacterial activity, agar dilution MIC; conditions: S. pyogenes EES61, Brain Heart Infusion agar, 20-24 hours, read-out: MIC
Experimental: as §1, §2, §3, §4

[32] = system: Staphylococcus aureus 45 RAR 2; assay: microbe, parasite or virus in culture; conditions: 45RAR2
Experimental: as §1, §2, §3, §4

| Compound | MIC [2] [µg/mL] | MIC [3] [µg/mL] | MIC [4] [µg/mL] | MIC [5] [µg/mL] | MIC [6] [µg/mL] | MIC [7] [µg/mL] | MIC [8] [µg/mL] | MIC [9] [µg/mL] | MIC [10] [µg/mL] | MIC [11] [µg/mL] | MIC [12] [µg/mL] | MIC [13] [µg/mL] | MIC [14] [µg/mL] | MIC [15] [µg/mL] | MIC [16] [µg/mL] | MIC [17] [µg/mL] | MIC [18] [µg/mL] | other results |
| --- | --- | --- | --- | --- | --- | --- | --- | --- | --- | --- | --- | --- | --- | --- | --- | --- | --- | --- |
| CC[C@H]1OC(=O)[C@H](C)[C@@H](O[C@H]2C[C@@](C)(OC)[C@@H](O)[C@H](C)O2)[C@H](C)[C@@H](O[C@@H]2O[C@H](C)C[C@H](N(C)C)[C@H]2O)[C@](C)(O)C[C@@H](C)[C@@H](N2CCC(C)CC2)[C@H](C)[C@@H](O)[C@]1(C)O [Example 6] | 0.25 (≈ 0.306 µM) | 1 (≈ 1.22 µM) | 1 (≈ 1.22 µM) | 1 (≈ 1.22 µM) | 0.5 (≈ 0.612 µM) | 2 (≈ 2.45 µM) | 1 (≈ 1.22 µM) | 1 (≈ 1.22 µM) | 2 (≈ 2.45 µM) | 1 (≈ 1.22 µM) | 1 (≈ 1.22 µM) | 1 (≈ 1.22 µM) | 2 (≈ 2.45 µM) | 1 (≈ 1.22 µM) | 1 (≈ 1.22 µM) | 1 (≈ 1.22 µM) | 1 (≈ 1.22 µM) | MIC [1]: 0.1 µg/mL (≈ 0.122 µM); MIC (Escherichia coli DC-2): 25 µg/mL (≈ 30.6 µM); MIC (Escherichia coli H560): 3.1 µg/mL (≈ 3.79 µM); MIC (Escherichia coli Juhl): 12.5 µg/mL (≈ 15.3 µM); MIC (Escherichia coli SS): 0.2 µg/mL (≈ 0.245 µM); MIC [19]: 0.2 µg/mL (≈ 0.245 µM); MIC [20]: 0.05 µg/mL (≈ 0.0612 µM); MIC (Staphylococcus aureus 45): 0.2 µg/mL (≈ 0.245 µM); MIC [21]: 0.39 µg/mL (≈ 0.477 µM); MIC [22]: 3.1 µg/mL (≈ 3.79 µM); MIC [23]: 0.39 µg/mL (≈ 0.477 µM); MIC [24]: 0.39 µg/mL (≈ 0.477 µM); MIC [25]: 0.78 µg/mL (≈ 0.955 µM); MIC [26]: 0.39 µg/mL (≈ 0.477 µM); MIC [27]: 0.1 µg/mL (≈ 0.122 µM); MIC [28]: 0.02 µg/mL (≈ 0.0245 µM); MIC [29]: 3.1 µg/mL (≈ 3.79 µM); MIC [30]: > 100 µg/mL; MIC [31]: 0.1 µg/mL (≈ 0.122 µM); MIC [32]: 0.78 µg/mL (≈ 0.955 µM) |
| CC[C@H]1OC(=O)[C@H](C)[C@@H](O[C@H]2C[C@@](C)(OC)[C@@H](O)[C@H](C)O2)[C@H](C)[C@@H](O[C@@H]2O[C@H](C)C[C@H](N(C)C)[C@H]2O)[C@](C)(O)C[C@@H](C)[C@@H](N2CCC(OC)(OC)CC2)[C@H](C)[C@@H](O)[C@]1(C)O [Example 27] | 0.06 (≈ 0.0695 µM) | 0.25 (≈ 0.29 µM) | 1 (≈ 1.16 µM) | 1 (≈ 1.16 µM) | 0.25 (≈ 0.29 µM) | 1 (≈ 1.16 µM) | 1 (≈ 1.16 µM) | 1 (≈ 1.16 µM) | 1 (≈ 1.16 µM) | 1 (≈ 1.16 µM) | 2 (≈ 2.32 µM) | 0.5 (≈ 0.579 µM) | 1 (≈ 1.16 µM) | 1 (≈ 1.16 µM) | 0.5 (≈ 0.579 µM) | 1 (≈ 1.16 µM) | 1 (≈ 1.16 µM) | – |
